Experimental data as given in article PMC3117861, “Analysis of Proteasomal Proteolysis during the In Vitro Metacyclogenesis of Trypanosoma cruzi” (PLoS ONE, 2011).
Where a SMILES comes first, the peptide text is derived from it. The star is where a group is joined. Cbz = O=C(OCc1ccccc1)*

Target: T1, 20S proteasome (Trypanosoma cruzi, UniProt V5BU39)
T1 construct: gene TCDM_03188; ATP in assay, so 20S and 26S forms not separated; with Proteasome subunit beta type-1; Proteasome subunit beta type-2; Proteasome subunit beta type-3; Proteasome subunit beta type-4; Proteasome subunit beta type-7; Proteasome subunit alpha type-1; Proteasome subunit alpha type-2; Proteasome subunit alpha type-3; Proteasome subunit alpha type-4; Proteasome subunit alpha type-5; Proteasome subunit alpha type-6; Proteasome subunit alpha type-7
Test: fluorimetric peptidase assay in crude extract
Format: biochemical
Details: read-out: % inhibition at 50 μM (chymotrypsin-like activity)

Compound `CC(C)C[C@@H](C=O)NC(=O)[C@H](CC(C)C)NC(=O)[C@H](CC(C)C)NC(=O)OCc1ccccc1` [MG132] (Cbz-Leu-Leu-Leu-aldehyde) has an inhibition at 50 µM of 95%.
